# Where two headings read alike, the source gives them in different places.
# Key:
# [1] = Pharmacokinetics in beagle dogs, intravenous; type: in vivo; conditions: for Vd / half-life: dog
# Description: The test articles were administered to beagle dogs weighing approximately 6-10 kg. Each test article was dosed at 1.4 mg/kg in aqueous saline (with or without 0.5% Tween) over course of 1-10 minutes. […] The dogs were fasted at least 12 hours prior to each dosing and offered food after the 4-hour blood sample was taken; water was withheld for 1 hour prior to and 4 hours following each dosing event. The dose for each animal was based on its most recent body weight. The test article was injected intravenously via a catheter placed in the cephalic vein as a slow bolus.
# Blood was collected via the jugular vein. All blood samples (˜1 mL each) were collected into K3EDTA tubes. Following blood collection, the samples were immediately inverted several times and were held on wet ice pending centrifugation. The samples were centrifuged within ˜30 minutes of collection under refrigeration (˜5° C. for ˜10 minutes at ˜2000 g) to obtain plasma. The plasma was frozen immediately on dry ice after separation. The plasma samples were stored at approximately −70° C. until analysis.
# Plasma (100 μL) was precipitated with 400 μL of 0.1% formic acid in acetonitrile containing the internal standard (100 ng/mL pneumocandin). The samples were then capped and vortexed for about 30 seconds followed by centrifugation at 14,000 rpm at room temperature for 10 minutes. Following centrifugation 200 μL of supernatant was transferred to plastic autosampler vials containing 200 μL of 0.1% formic acid in water and vortexed. Samples were then analyzed by LCMSMS.
# All pharmacokinetic calculations were performed using WinNonlin version 4.1 (Pharsight Corp) by noncompartmental analysis.
# C. albicans R303 = experiment: mouse candidiasis infection model, IP administration, kidney fungal burden; type: in vivo; conditions: for log reduction at 0.5 mg/kg / log reduction at 1.5 mg/kg / log reduction at 4.5 mg/kg: Candida albicans, R303, ip, 24 h, read-out: Difference from 24-h control; for Mean log10 CFU/kidneys (±SEM): kidneys 24 h after infection; for overall performance in reducing C. albicans CFUs in the kidneys of the mice: conclusion over all runs
# Description: The objective of these studies was to evaluate the efficacy of test compounds in the mouse candidiasis infection model. Amounts of test articles are uncorrected.
# The strain, C. albicans R303 was transferred from frozen storage onto Sabauroud dextrose agar (SDA) plates and grown for ˜24 hr at 35° C. The inoculum was prepared by transferring colonies from the plate to phosphate buffered saline (PBS) and the concentration adjusted to approximately 10^6 CFU/mL with the aid of a spectrophotometer. The stock was diluted 1:9 to prepare the inoculum. Prior to each run the concentration was verified using the dilution plate count method.
# Female CD-1 mice were used in this study. The animals were approximately seven-weeks-old at the start of the study and weighed about 15-30 g.
# Mice were made neutropenic with IP injections of cyclophosphamide (150 mg/kg in 10 mL/kg) at 4 and 1 day before inoculation. Each animal was inoculated with the appropriate concentration by injecting 0.1 mL of inoculum into a tail vein. The test compounds were administered IP at 2 hr after infection.
# In a typical procedure, the kidneys were collected from four mice in control group 1 (untreated) at 2 hr after infection, and from another four mice in control group 2 (untreated) at 24 hr after infection. Kidneys were removed aseptically from each mouse and were combined in a sterile tube. An aliquot (2 mL) of sterile PBS was added to each tube and the contents homogenized with a tissue homogenizer (Polytron 3100). Serial dilutions of the tissue homogenates were conducted and 0.1 mL aliquots were spread on SDA plates and the plates incubated at 35° C. overnight. The CFU/kidneys were determined from colony counts. Data were analyzed using one-way ANOVA with either the Tukey-Kramer Multiple Comparisons Test or Dunnett Test (GraphPad InStat version 3.06, GraphPad Software, San Diego, Calif.).
# The data reported below are the average of four mice. Each run included a separate control and each is tabulated separately.
Compound,overall performance in reducing C. albicans CFUs in the kidneys of the mice (C. albicans R303),"log reduction at 0.5 mg/kg (C. albicans R303; Fourth run, IP 0.5 mg/kg)","log reduction at 1.5 mg/kg (C. albicans R303; Fourth run, IP 1.5 mg/kg)","Mean log10 CFU/kidneys (±SEM) (C. albicans R303; Fourth run, IP 0.5 mg/kg)","Mean log10 CFU/kidneys (±SEM) (C. albicans R303; Fourth run, IP 1.5 mg/kg)","log reduction at 0.5 mg/kg (C. albicans R303; Third run, IP 0.5 mg/kg)","log reduction at 1.5 mg/kg (C. albicans R303; Third run, IP 1.5 mg/kg)","log reduction at 4.5 mg/kg (C. albicans R303; Third run, IP 4.5 mg/kg)","Mean log10 CFU/kidneys (±SEM) (C. albicans R303; Third run, IP 0.5 mg/kg)","Mean log10 CFU/kidneys (±SEM) (C. albicans R303; Third run, IP 1.5 mg/kg)","Mean log10 CFU/kidneys (±SEM) (C. albicans R303; Third run, IP 4.5 mg/kg)",further results
CCCCCOc1ccc(-c2ccc(-c3ccc(C(=O)N[C@H]4C[C@@H](O)C(OCCOCCN)NC(=O)C5[C@@H](O)[C@@H](C)CN5C(=O)C([C@@H](C)O)NC(=O)C([C@H](O)[C@@H](O)c5ccc(O)cc5)NC(=O)C5C[C@@H](O)CN5C(=O)C([C@@H](C)O)NC4=O)cc3)cc2)cc1 (stereo partly shown) [compound 5],performed strongly,–,–,–,–,–,–,–,–,–,–,"Vd ([1]; beagle, in vivo, iv, 1.4 mg/kg): 0.627 ± 0.0139 L/kg; half-life ([1]; beagle, in vivo, iv, 1.4 mg/kg): 33.7 ± 3.28 h; log reduction at 0.5 mg/kg (C. albicans R303; Second run, IP 0.5 mg/kg): 1.22; log reduction at 1.5 mg/kg (C. albicans R303; Second run, IP 1.5 mg/kg): 4.15; log reduction at 4.5 mg/kg (C. albicans R303; Second run, IP 4.5 mg/kg): 4.87; Mean log10 CFU/kidneys (±SEM) (C. albicans R303; Second run, IP 0.5 mg/kg): 3.65 ± 0.10 log10 CFU/kidneys; Mean log10 CFU/kidneys (±SEM) (C. albicans R303; Second run, IP 1.5 mg/kg): 0.73 ± 0.42 log10 CFU/kidneys; Mean log10 CFU/kidneys (±SEM) (C. albicans R303; Second run, IP 4.5 mg/kg): 0.00 ± 0.00 log10 CFU/kidneys"
CCCCCOc1ccc(-c2ccc(-c3ccc(C(=O)N[C@H]4C[C@@H](O)C(NCCN)NC(=O)C5[C@@H](O)[C@@H](C)CN5C(=O)C([C@@H](C)O)NC(=O)C([C@H](O)[C@@H](O)c5ccc(O)cc5)NC(=O)C5C[C@@H](O)CC5C(=O)C([C@@H](C)O)NC4=O)cc3)cc2)cc1 (stereo partly shown) [compound 15],performed strongly,3.01,3.81,2.09 ± 0.16 log10 CFU/kidneys,1.29 ± 0.18 log10 CFU/kidneys,–,–,–,–,–,–,"log reduction at 0.5 mg/kg (C. albicans R303; Second run, IP 0.5 mg/kg): 3.63; log reduction at 1.5 mg/kg (C. albicans R303; Second run, IP 1.5 mg/kg): 3.91; log reduction at 4.5 mg/kg (C. albicans R303; Second run, IP 4.5 mg/kg): 4.15; Mean log10 CFU/kidneys (±SEM) (C. albicans R303; Second run, IP 0.5 mg/kg): 1.25 ± 0.45 log10 CFU/kidneys; Mean log10 CFU/kidneys (±SEM) (C. albicans R303; Second run, IP 1.5 mg/kg): 0.96 ± 0.57 log10 CFU/kidneys; Mean log10 CFU/kidneys (±SEM) (C. albicans R303; Second run, IP 4.5 mg/kg): 0.73 ± 0.42 log10 CFU/kidneys"
CCCCCOc1ccc(-c2ccc(-c3ccc(C(=O)N[C@H]4C[C@@H](O)C(NCCNCCN)NC(=O)C5[C@@H](O)[C@@H](C)CN5C(=O)C([C@@H](C)O)NC(=O)C([C@H](O)[C@@H](O)c5ccc(O)cc5)NC(=O)C5C[C@@H](O)CC5C(=O)C([C@@H](C)O)NC4=O)cc3)cc2)cc1 (stereo partly shown) [compound 17],performed strongly,1.64,3.91,3.46 ± 0.06 log10 CFU/kidneys,1.19 ± 0.12 log10 CFU/kidneys,–,–,–,–,–,–,–
CCCCCOc1ccc(-c2ccc(-c3ccc(C(=O)N[C@H]4C[C@@H](O)C(NCCNCCO)NC(=O)C5[C@@H](O)[C@@H](C)CN5C(=O)C([C@@H](C)O)NC(=O)C([C@H](O)[C@@H](O)c5ccc(O)cc5)NC(=O)C5C[C@@H](O)CC5C(=O)C([C@@H](C)O)NC4=O)cc3)cc2)cc1 (stereo partly shown) [compound 18],performed strongly,2.56,3.95,2.54 ± 0.17 log10 CFU/kidneys,1.15 ± 0.09 log10 CFU/kidneys,–,–,–,–,–,–,"CI ([1]; 1.4 mg/kg intravenous slow bolus, mean ± SEM, n = 4 beagle dogs): 0.377 ± 0.018 mL/min/kg; half-life ([1]; plasma, 1.4 mg/kg intravenous slow bolus, mean ± SEM, n = 4 beagle dogs, read-out: T ½ (converted)): 21 ± 1.16 h; Vd ([1]; plasma, 1.4 mg/kg intravenous slow bolus, mean ± SEM, n = 4 beagle dogs, read-out: Vz): 0.687 ± 0.0584 L/kg"
CCC(C)CC(C)CCCCCCCCC(=O)N[C@H]1C[C@@H](O)C(NCCOCCOCCN)NC(=O)C2[C@@H](O)CCN2C(=O)C([C@H](O)CCN)NC(=O)C([C@H](O)[C@@H](O)c2ccc(O)cc2)NC(=O)C2C[C@@H](O)CC2C(=O)C([C@@H](C)O)NC1=O (stereo partly shown) [compound 19],performed strongly,–,–,–,–,2.19,3.47,4.03,3.01 ± 0.07 log10 CFU/kidneys,1.74 ± 0.18 log10 CFU/kidneys,1.17 ± 0.40 log10 CFU/kidneys,–
CCC(C)CC(C)CCCCCCCCC(=O)N[C@H]1C[C@@H](O)C(NCCOCCN)NC(=O)C2[C@@H](O)CCN2C(=O)C([C@H](O)CCN)NC(=O)C([C@H](O)[C@@H](O)c2ccc(O)cc2)NC(=O)C2C[C@@H](O)CC2C(=O)C([C@@H](C)O)NC1=O (stereo partly shown) [compound 20],performed strongly,–,–,–,–,3.25,4.48,3.75,1.96 ± 0.18 log10 CFU/kidneys,0.73 ± 0.42 log10 CFU/kidneys,1.45 ± 0.09 log10 CFU/kidneys,–
CCC(C)CC(C)CCCCCCCCC(=O)N[C@H]1C[C@@H](O)C(NCCNCCO)NC(=O)C2[C@@H](O)CCN2C(=O)C([C@H](O)CCN)NC(=O)C([C@H](O)[C@@H](O)c2ccc(O)cc2)NC(=O)C2C[C@@H](O)CC2C(=O)C([C@@H](C)O)NC1=O (stereo partly shown) [compound 21],performed strongly,–,–,–,–,3.63,4.48,4.03,1.57 ± 0.16 log10 CFU/kidneys,0.73 ± 0.42 log10 CFU/kidneys,1.17 ± 0.40 log10 CFU/kidneys,–
CCC(C)CC(C)CCCCCCCCC(=O)N[C@H]1C[C@@H](O)C(NCCNCCN)NC(=O)C2[C@@H](O)CCN2C(=O)C([C@H](O)CCN)NC(=O)C([C@H](O)[C@@H](O)c2ccc(O)cc2)NC(=O)C2C[C@@H](O)CC2C(=O)C([C@@H](C)O)NC1=O (stereo partly shown) [compound 22],performed strongly,–,–,–,–,3.56,5.2,4.55,1.65 ± 0.16 log10 CFU/kidneys,0.00 ± 0.00 log10 CFU/kidneys,0.65 ± 0.38 log10 CFU/kidneys,–
